From paper PMC11858715 (Molecules, 2025)
No end group written: not given here.

Assays:
[1] = target: S2 (YIYRNYPDF), sense peptide surrogate of AtxA neurotoxic site (Vipera ammodytes ammodytes, UniProt P00626); test: biochemical; format: binding; settings: 100% DMSO; 25 °C; read-out: KD (σ)
[2] = target: S1 (GMMILG), sense peptide surrogate of AtxA neurotoxic site (Vipera ammodytes ammodytes, UniProt P00626); test: biochemical; format: binding; settings: 100% DMSO; 25 °C; read-out: KD (σ)

Q: Which Kd [1] does the source give for “INISIVGVK [S2A1, Ile-Asn-Ile-Ser-Ile-Val-Gly-Val-Lys]” here?
A: 1.1 µM

Q: With SHHYEP [S1A1, Ser-His-His-Tyr-Glu-Pro] as the substance, how does the Kd [2] read?
A: 4.9 µM

Q: Which Kd [2] does the source give for SHHYSP [S1A2, Ser-His-His-Tyr-Ser-Pro] here?
A: 1.4 µM

Q: How did the Kd [1] turn out when “VNISVIGIK [S2A2, Val-Asn-Ile-Ser-Val-Ile-Gly-Ile-Lys]” was run?
A: 8.9 µM
